Patent US4499269A, “Fused 1,3,5-triazines” (Fisons plc, priority 1982, dated 1985)

How the values were obtained:
rejection of skin grafts = assay: Rejection of tailskin grafts in mice, graft survival (Example B); format: in vivo, mice (CBA strain donors, Lac/a strain recipients)
Description: The tailskin grafting method of Bailey and Usania (Transplantation Bulletin 7, 424-5, 1960) was used.
Sections of tailskin from donor CBA strain mice (agonti) were grafted onto the tails of 16 Lac/a strain mice (albino). Test compound was given from 2 days prior to grafting until graft loss at a dose of 50 mg/kg/day in 1% "Tween 80"/saline vehicle by the intraperitoneal route. Graft condition was assessed daily and mean graft survival time (days) of vehicle, and drug tested groups, was compared.

[1] = test system: delayed hypersensitivity reaction to PPD; assay: Delayed hypersensitivity reaction to PPD in guinea pigs, topical under occlusion (Example C); format: in vivo; settings: for % Inhibition 24h after challenge: Diameter of erythema / % Inhibition 24h after challenge: Erythema score / % Inhibition 24h after challenge: Increase in skin thickness: topical under occlusion, n=6
Description: Male guinea pigs weighing 250-300 g were sensitised by a subcutaneous injection of Freunds Complete Adjuvant (Difco) in saline. Fourteen days following sensitisation animals were challenged intradermally into a shaved flank with 50 μg of purified protein derivative PPD (in 0.1 ml of saline). Changes in skin thickness were determined immediately before and 24 h and 48 h after antigen challenge. In addition, the diameter of reaction and a semiquantitative estimate of the degree of erythema were determined at 24 h and 48 h.
The compound of Example 1 was applied topically under an occlusive dressing. This consisted of adding a solution of the compound in dimethylacetamide (0.3 ml) to a filter paper square (4×4 cm) backed by surgical tape placed on the challenge site and held in place by adhesive bandage encircling the torso of the animal. The dressing was applied 10 min after challenge and removed 24 h later. Control animals received dimethylacetamide alone to the challenge site.
The effect of the compound of Example 1 applied under occlusion, with antigen challenge, on the delayed hypersensitivity reaction to PPD in guinea pigs (n=6)

[2] = test system: delayed contact sensitivity to oxazolone (increase of ear thickness); assay: Delayed contact sensitivity to oxazolone in mice (Example A); format: in vivo; settings: for inhibition of increased ear thickness: 24 hours after challenge
Description: This response is a measure of a cell-mediated immune response which is dependent on the activity of thymus-derived lymphocytes. Mice are sensitised with 100 μl of oxazolone and are subsequently challenged with 15 μl of 3% oxazolone on their right ears on day 7. The resulting cell-mediated response is measured 24 hours after challenge by assessing the increase of ear thickness using a dial gauge. The unchallenged left ears act as controls.

COc1ccc2c(c1)sc1nc(N)nc(=Nc3ccccc3)n12 [Example 1, 2-Amino-8-methoxy-4-phenylimino-4H-1,3,5-triazino[2,1-b]benzothiazole]
prolongation of skin graft survival (rejection of skin grafts; 50 mg/kg/day intraperitoneal from 2 days prior to grafting until graft loss, versus vehicle, significant): 2.5 days
suppression of the rejection of skin grafts (rejection of skin grafts; mice, result in words): suppress the rejection of skin grafts in mice
% Inhibition 24h after challenge: Diameter of erythema ([1]; 1% in dimethylacetamide): 5%
% Inhibition 24h after challenge: Erythema score ([1]; 1% in dimethylacetamide): 20%
% Inhibition 24h after challenge: Increase in skin thickness ([1]; 1% in dimethylacetamide): 20%
inhibition of the increase in skin thickness ([1]; 1 to 3% in dimethylacetamide, 24 hours post challenge, result in words): dose dependent inhibition of the increase in skin thickness
reaction diameters and erythema scores ([1]; 1 to 3% in dimethylacetamide, compared with dimethylacetamide controls, result in words): significantly reduced the reaction diameters and erythema scores
% Inhibition 24h after challenge: Diameter of erythema ([1]; 2% in dimethylacetamide): 16%
% Inhibition 24h after challenge: Erythema score ([1]; 2% in dimethylacetamide): 32%
% Inhibition 24h after challenge: Increase in skin thickness ([1]; 2% in dimethylacetamide): 35%
% Inhibition 24h after challenge: Diameter of erythema ([1]; 3% in dimethylacetamide): 34%
% Inhibition 24h after challenge: Erythema score ([1]; 3% in dimethylacetamide): 63%
% Inhibition 24h after challenge: Increase in skin thickness ([1]; 3% in dimethylacetamide): 50%
suppression of delayed hypersensitivity reaction ([1]; guinea pigs, dosed topically, result in words): suppress a delayed hypersensitivity reaction in guinea pigs
inhibition of delayed contact sensitivity to oxazolone ([2]; mice, result in words): inhibit a delayed contact sensitivity to oxazolone in mice
inhibition of increased ear thickness ([2]; single dose 50 mg/kg intraperitoneal on day 1 relative to sensitisation): 44%
inhibition of increased ear thickness ([2]; single dose 50 mg/kg intraperitoneal on day 2 relative to sensitisation): 44%
inhibition of increased ear thickness ([2]; single dose 50 mg/kg intraperitoneal on day 3 relative to sensitisation): 49%
inhibition of increased ear thickness ([2]; single dose 50 mg/kg intraperitoneal on day 7 relative to sensitisation): 61%
inhibition of increased ear thickness ([2]; single dose 50 mg/kg intraperitoneal on one of days -1, 0, 1, 2, 3 or 7 relative to sensitisation, result in words): inhibition of increased ear thickness
